Experimental data published in patent publication US8192962B2, “Processes for detecting toxic substances” (Daikin Industries, Ltd., priority 2001, dated 2012).

System: Energy system protein genes
Assay: DNA chip mRNA expression in yeast, energy system protein genes (Table 4)
Format: cell-based, Saccharomyces cerevisiae S288C
Method: Yeast (Saccharomyces cerevisiae S288C (α SUC2mal mel gap2 CUP1)) were incubated at 25° C. on YPD medium (yeast extract 1%, polypepton 2%, glucose 2%). One of toxic chemical substances was added to the cells at logarithmic growth phase, and the cells were further incubated for two hours. Cells were cultured without any chemical substance in the same condition, and were used as control. Concentrations of the chemical substances were defined to inhibit the growth of the yeast but not lead to death.
After completion of the incubation, the culture was centrifuged to collect the cells. To the cells, sodium acetate buffer (50 mM sodium acetate, 10 mM EDTA, 1% SDS) was added, and the mixture was shaken at 65° C. for five minutes, followed by returning to room temperature, and obtaining the supernatant, of which the procedures were repeated two times. To the supernatant, ½ amount of a solution of phenol/chloroform was added, and the mixture was centrifuged to give a supernatant, which was added with an equal amount of chloroform, and the mixture was centrifuged to give a supernatant. To the supernatant, an equal amount of isopropanol containing 0.3 M sodium acetate was added, and the mixture was allowed to stand at room temperature for 30 minutes, after which the mixture was centrifuged to give a sediment of the whole RNAs. Seventy % ethanol was added to the sediment, and the mixture was again centrifuged to give a sediment, which was then dried and dissolved in water. mRNA was isolated from the whole RNAs as followings. In view of the fact that a poly A chain is attached to the 3′ terminus of mRNA, a polynucleotide having a poly T structure which was immobilized on the surface of latex beads was used to trap the mRNA, and then the mRNA was washed and eluted with spine column (Oligotex-dT30<Super>mRNA Purification Kit, Takara). Reverse transcription of the mRNA was conducted with a reverse transcriptase (Super Script II Reverse Transcriptase; catalogue No. 18064-014, GibcoBRL) using fluorescence-labeled nucleotides to give cDNAs that were introduced with Cy3-dUTP or Cy5-dUTP during the reverse transcription.
The labeled cDNAs were dissolved in TE buffer (10mM Tris-HCl/1 mM EDTA, pH8.0), and the solution was dropped on the DNA chip containing the whole genes of yeast (DNA Chip Research Inc. Japan) so that the cDNAs were hybridized on the DNA chip at 65° C. for over 12 hours. The fluoresces intensity of the DNA chip was read with a scanner, and the ratio relative to the fluorescence intensity resulting from the absence of chemical substance was estimated as the following, which is shown in Tables 1 to 9: […]

Measured: The level of expressed mRNA in the presence of chemical substance/The level of expressed mRNA in the absence of chemical substance

C[S+](C)[O-] [(15), dimethylsulfoxide]
3.0: yeast gene YOL165C
1.4: yeast gene YCR012W | yeast gene YEL020C | yeast gene YIL172C | yeast gene YOL126C | yeast gene YPL171C
4.8: yeast gene YCR107W
1.6: yeast gene YEL071W, cells incubated two hours with the chemical substance | yeast gene YKL060C, cells incubated two hours with the chemical substance | yeast gene YLR304C, cells incubated two hours with the chemical substance | yeast gene YNL237W | yeast gene YOL086C, cells incubated two hours with the chemical substance
2.0: yeast gene YGR244C | yeast gene YHR174W | yeast gene YOR347C
3.4: yeast gene YCL040W
1.5: yeast gene YGR008C
1.0: yeast gene YBR126C | yeast gene YDR231C | yeast gene YKL035W | yeast gene YLR345W | yeast gene YOR221C
0.7: yeast gene YCR005C | yeast gene YDL067C, cells incubated two hours with the chemical substance | yeast gene YDL085W, cells incubated two hours with the chemical substance | yeast gene YDR178W, cells incubated two hours with the chemical substance | yeast gene YGL191W, cells incubated two hours with the chemical substance | yeast gene YGR174C, cells incubated two hours with the chemical substance | yeast gene YKL016C, cells incubated two hours with the chemical substance | yeast gene YLR038C, cells incubated two hours with the chemical substance | yeast gene YLR164W, cells incubated two hours with the chemical substance | yeast gene YPL031C, cells incubated two hours with the chemical substance | yeast gene YPR006C
0.9: yeast gene YAL054C | yeast gene YAL060W | yeast gene YKL150W | yeast gene YMR105C | yeast gene YMR118C | yeast gene YNL037C
1.1: yeast gene YIL111W | yeast gene YML054C | yeast gene YNL071W | yeast gene YOL157C
3.5: yeast gene YGR087C, cells incubated two hours with the chemical substance
3.2: yeast gene YPL088W
5.6: yeast gene YIL160C
1.2: yeast gene YBR145W | yeast gene YOR136W | yeast gene YPL240C
2.4: yeast gene YDR380W | yeast gene YGR254W
1.9: yeast gene YBR196C | yeast gene YGR192C | yeast gene YML125C
0.5: yeast gene YDL078C, cells incubated two hours with the chemical substance | yeast gene YDR529C, cells incubated two hours with the chemical substance | yeast gene YGR062C, cells incubated two hours with the chemical substance, 25° C., YPD medium | yeast gene YJL166W, cells incubated two hours with the chemical substance | yeast gene YKL085W, cells incubated two hours with the chemical substance | yeast gene YKR058W, cells incubated two hours with the chemical substance, 25° C., YPD medium | yeast gene YLR295C, cells incubated two hours with the chemical substance, 25° C., YPD medium | yeast gene YML120C, cells incubated two hours with the chemical substance
1.8: yeast gene YBL058W, cells incubated two hours with the chemical substance | yeast gene YER178W | yeast gene YHL008C | yeast gene YKL152C | yeast gene YML100W | yeast gene YMR089C
0.6: yeast gene YBR299W | yeast gene YDL174C | yeast gene YFR053C | yeast gene YGR207C | yeast gene YIL045W | yeast gene YJR048W
2.6: yeast gene YJR155W | yeast gene YLR273C
0.3: yeast gene YML087C
2.3: yeast gene YJL052W | yeast gene YNL331C
2.5: yeast gene YKR097W
0.4: yeast gene YDL181W, cells incubated two hours with the chemical substance | yeast gene YEL039C, cells incubated two hours with the chemical substance | yeast gene YLL041C, cells incubated two hours with the chemical substance | yeast gene YLR395C, cells incubated two hours with the chemical substance
4.2: yeast gene YDL243C
2.1: yeast gene YJR009C
0.8: yeast gene YDR298C, cells incubated two hours with the chemical substance | yeast gene YER061C, cells incubated two hours with the chemical substance | yeast gene YGL253W | yeast gene YIR031C, cells incubated two hours with the chemical substance | yeast gene YLR174W, cells incubated two hours with the chemical substance | yeast gene YLR377C, cells incubated two hours with the chemical substance | yeast gene YMR261C, cells incubated two hours with the chemical substance | yeast gene YPL271W
2.7: yeast gene YGL062W | yeast gene YGR256W | yeast gene YHR179W
3.1: yeast gene YAL038W | yeast gene YFL057C | yeast gene YPR026W
